Experimental data reported in patent US5352685A, “Thieno[3,2-b]pyridine derivatives” (priority 1992, dated 1994).
Where a name gives a salt, the structure may show the parent alone.

Assays:
[1] = biological target: T1, 5-HT3 (serotonin 3) receptor (Rattus norvegicus, UniProt P35563); test: 5-HT3 antagonistic action (antagonistic action of Bezold-Jarish reflex) in anesthetized rat; format: in vivo; details: iv, 5 min; i.v.; 5-HT 8 μg/kg i.v.; male Wistar rat under urethane anesthesia; read-out: ID50 (dose with inhibition ratio of 50%, Bezold-Jarish reflex)
T1 construct: from tissue; host or cells: living anaesthetized male Wistar rat (in vivo; endogenous receptor)
T1 sequence (P35563 24-483): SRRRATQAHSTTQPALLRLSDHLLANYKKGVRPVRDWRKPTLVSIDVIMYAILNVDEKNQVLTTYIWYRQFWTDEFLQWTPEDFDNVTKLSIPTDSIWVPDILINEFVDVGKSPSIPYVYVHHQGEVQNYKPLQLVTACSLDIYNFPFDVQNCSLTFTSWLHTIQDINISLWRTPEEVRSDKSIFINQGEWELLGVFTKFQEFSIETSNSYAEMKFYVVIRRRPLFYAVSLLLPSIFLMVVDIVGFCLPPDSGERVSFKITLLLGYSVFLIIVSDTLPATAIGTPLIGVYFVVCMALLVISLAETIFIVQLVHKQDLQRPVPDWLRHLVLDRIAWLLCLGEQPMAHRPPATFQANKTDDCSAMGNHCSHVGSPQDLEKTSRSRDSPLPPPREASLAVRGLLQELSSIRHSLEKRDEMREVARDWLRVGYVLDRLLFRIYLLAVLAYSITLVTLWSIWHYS
Procedure: 3) 5-HT3 antagonistic action (antagonistic action of Bezold-Jarish reflex)
According to the following method, the assessment of a compound in terms of the antagonistic action of Bezold-Jarish reflex triggered by 5-HT was carried out in a rat under anesthesia.
A male Wistar rat, weighed 300 to 400 g, was anesthetized with an intra-parenteral dose of 1.2 g/kg urethane, to monitor the heart rate triggered by electrocardiography. Five minutes after saline was intravenously administered (0.5 ml/kg) to the rat, 5-HT (8 μg/kg) dissolved in saline (0.5 ml/kg) was intravenously administered firstly, to measure the change in […] (A). To the same rat after 10 minutes interval, the test compound was intravenously administered, 5 minutes later 5-HT was administered in the same fashion, to measure the change in heart rate (B). Based on these values, the inhibition ratio of the test compound was calculated by the following formula:
inhibition ratio=(1-B/A)×100
Also, the dose with the inhibition ratio of 50% was defined as the ID50 of the test compound.

[2] = Acute toxicity, oral, mice; format: in vivo, mouse (male ddy); details: orally 1000 mg/kg; 3 mice per compound; observation 7 days
Procedure: For the test of acute toxicity, male ddy mice (body weight; 25 to 30 g, 3 mice for one test compound) were used. Test compound of Example 1 or 2 was orally administered at 1000 mg/kg.

mouse gastric emptying = test: Promoting action of mouse gastric emptying; format: in vivo; details: 1 mg/kg, p.o.; 24-hour starved male ddy mice; control group (distilled water) defined as 100%
Procedure: Promoting action of mouse gastric emptying Male, ddy mice (body weight; 20 to 25 g) were used. 24-Hour after starvation 1 mg/kg test compounds dissolved in distilled water were orally administered (10 ml/kg). To the control group distilled water was orally administered (10 ml/kg). One hour later, a 2000 ppm phenol red solution (suspended in aqueous 0.5% carboxymethyl cellulose solution) was administered to each mouse (liquid dose; 0.05 ml/mouse). Then, 15 minutes later, the animals were killed to remove the stomachs. The phenol red retained in the stomachs was developed in 20 ml of a 2.75% trisodium phosphate solution, and analyzed with an absorption photometer at a wave length of 540 nm (A). Immediately after the phenol red solution was administered, the animals were killed to quantitatively determine the phenol red left in the stomachs (B). The difference in the amount of phenol red between A and B (B-A) was designated as gastric emptying. The gastric emptying of the test compounds were shown in Table 4 below, provided that the gastric emptying of the control group was defined as 100%.

dog gastric contraction = test: Promoting action of dog gastric contraction; format: in vivo, dog (adult mongrel); details: Canis lupus familiaris, iv, 0.5 h; i.v.; starved dogs; contraction for 30-minute interval after dose vs. IMC contraction immediately before; read-out: ED50 (dose developing 50% of the IMC contraction)
Procedure: 2) Promoting action of dog gastric contraction An implant-type strain-gauge transducer was sutured onto the serosa at the autrum (about 3 cm above pylorus) of adult mongrel dogs, weighed 11 to 15 kg, so as to determine the contraction of the circular muscle. Two weeks or more after the surgery, the gastric contraction was recorded for analysis with a data processing device. […] The dog was put to starvation for about 16 hours. Ten minutes after the completion of one IMC, a test compound was intravenously administered. The contraction for the 30-minute interval thereafter was represented as a percentage (%) to the IMC contraction having occurred immediately before, and the dose developing the 50% contraction was defined as ED50.

Row | SMILES | ED50 [1] [µg/kg] | death (acute toxicity) [2] | Promoting Action of Gastric Emptying (%) (mouse gastric emptying) | ED50 (dog gastric contraction) [µg/kg]
1 | O=C(NC1CN2CCC1CC2)c1cnc2ccsc2c1O (stereo not shown) [Example 1, N-(1-azabicyclo[2.2.2]oct-3-yl)-7-hydroxythieno[3.2-b]pyridine-6-carboxamide] | 0.15 | no death | 147 | 10
2 | O=C(N[C@H]1CN2CCC1CC2)c1cnc2ccsc2c1O [Example 2, R-N-(1-azabicyclo[2.2.2]oct-3-yl)-7-hydroxythieno[3.2-b]pyridine-6-carboxamide] | – | no death | 185 | 5
3 | CN1[C@@H]2CC[C@H]1C[C@@H](NC(=O)c1cn(C)c3ccsc3c1=O)C2 [Example 10, (endo)-N-(8-methyl-8-azabicyclo[3.2.1]oct-3-yl)-4,7-dihydro-4-methyl-7-oxothieno[3.2-b]pyridine-6-carboxamide] | – | – | 140 | –
4 | COc1cc(N)c(Cl)cc1C(=O)NC1CCN2CCCC1C2 (stereo not drawn) [BRL-24924, (endo)-4-amino-5-chloro-2-methoxy-N-[1-azabicyclo-(3.3.1)-non-4-yl]-benzamide hydrochloride, reference compound] | – | – | – | 100
5 | Cc1csc2c(O)c(C(=O)NC3CN4CCC3CC4)cnc12 (stereo not shown) [Example 11] | – | – | 152 | –
